This assay deals with Programmed cell death 1 ligand 1 (Homo sapiens, UniProt Q9NZQ7). The assay is described as follows: Binding affinity to His-tagged PD-L1 (unknown origin) assessed as inhibition of interaction with PD1 preincubated for 15 mins followed by PD1 addition measured after 15 mins by HTRF assay.
Chain of Programmed cell death 1 ligand 1 (Q9NZQ7 whole entry): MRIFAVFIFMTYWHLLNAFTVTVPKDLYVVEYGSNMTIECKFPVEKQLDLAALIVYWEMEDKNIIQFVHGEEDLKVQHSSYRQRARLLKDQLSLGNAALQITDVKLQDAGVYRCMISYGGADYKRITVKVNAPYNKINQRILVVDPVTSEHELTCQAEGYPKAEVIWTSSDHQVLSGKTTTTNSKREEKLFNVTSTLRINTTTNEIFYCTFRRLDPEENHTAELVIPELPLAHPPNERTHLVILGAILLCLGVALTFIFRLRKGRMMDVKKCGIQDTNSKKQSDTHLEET

One may read the IC50 as the point on the concentration scale where inhibition reaches its midpoint. Turning to `Cc1cc(CN2CCC(C(=O)NCCO)CC2)ccc1OCc1cccc(-c2ccccc2)c1C`, the IC50 was 110 nM.

Take `COc1cc(OCc2cccc(-c3ccccc3)c2C#N)cc(OC)c1CN1CCCC[C@H]1C(=O)O`: the half-maximal inhibitory concentration (IC50) came out at 6 nM.

Values taken from ChEMBL document CHEMBL3580542, “Inhibitors of the PD-1/PD-L1 Pathway Can Mobilize the Immune System: An Innovative Potential Therapy for Cancer and Chronic Infections” (ACS Med Chem Lett, 2015).
